Reference: publication PMC8421423, “Cellular model system to dissect the isoform-selectivity of Akt inhibitors” (Nature Communications, 2021)
Values joined by “and” are separate entries in the source; they are usually repeats but may differ in a detail not shown here. Equal entries are not always repeated. Where two headings read alike, the source gives them in different places. Values belong to the molecule of their own block, whether it stands above or below them.

Columns and labels:
parental Ba/F3 cells = assay: CellTiter-Glo cell viability assay; type: cell-based, murine
[1] = test system: pAkt^S473 and downstream targets in Ba/F3 myr-Akt1; settings: Ba/F3 myr-Akt1, 4-h treatment
Ba/F3^myr-Akt1 cells = assay: CellTiter-Glo cell viability assay; settings: for Log ratio EC50 [Akt] / EC50 [Akt], Akt1 / Akt2: cell viability assay Ba/F3 myr-Akt cells, log units
Ba/F3^myr-Akt2 cells = assay: CellTiter-Glo cell viability assay
Ba/F3^myr-Akt3 cells = assay: CellTiter-Glo cell viability assay; settings: for Log ratio EC50 [Akt] / EC50 [Akt], Akt3 / Akt2: cell viability assay Ba/F3 myr-Akt cells, log units
Procedure: On day 0, cells were plated into white 384-well cell culture plates (Greiner Bio-One) using a Multidrop reagent dispenser (Thermo Fisher Scientific) at cell numbers that ensure linear and optimal luminescent signal intensity (Ba/F3myr-Akt1: 600 cells/well, Ba/F3myr-Akt2: 800 cells/well, Ba/F3myr-Akt3: 800 cells/well). […] Cell viability was analyzed on day 4 using the CellTiter-Glo Assay (Promega) as per the manufacturer’s instructions. […] All experimental points were measured in duplicates for each plate and were replicated in at least three plates.

Akt1 [2] = biological target: T1, Akt1 (Homo sapiens, UniProt P31749); assay: STK HTRF KinEASE activity-based assay (IC50); settings: for Log ratio IC50 [Akt] / IC50 [Akt], Akt1 / Akt2: biochemical activity based assay, log units
Akt2 [3] = biological target: T2, Akt2 (Homo sapiens, UniProt P31751); assay: STK HTRF KinEASE activity-based assay (IC50)
Akt3 = Akt3 (Homo sapiens, UniProt Q9Y243); assay: STK HTRF KinEASE activity-based assay (IC50)
Akt1 [4] = biological target: T1, Akt1; assay: PhosphoSens continuous fluorometric kinetic enzyme assay
Procedure: (§1) By addition of either 8 nM Akt1, 2 nM Akt2, or 5 nM Akt3 (final concentrations) the reactions were initiated. […] Afterwards the kobs-values were plotted versus the inhibitor concentrations [I] and then fit to the following hyperbolic Eq.

Akt2 [5] = biological target: T2, Akt2; assay: as above
Procedure: as §1

[6] = Mus musculus, BaF3, parental cells, mean of replicates, read-out: CTG BaF3, Mean
[7] = parental cells, single replicates, read-out: CTG BaF3, individual determinations
[8] = Mus musculus, read-out: CTG BaF3myr-Akt1, Mean, mean of replicates
[9] = Mus musculus, read-out: CTG BaF3myr-Akt1, individual determinations, single replicates
[10] = read-out: CTG BaF3myr-Akt1, individual determinations, single replicates
[11] = Mus musculus, read-out: CTG BaF3myr-Akt2, Mean, mean of replicates
[12] = Mus musculus, read-out: CTG BaF3myr-Akt2, individual determinations, single replicates
[13] = read-out: CTG BaF3myr-Akt2, individual determinations, single replicates
[14] = Mus musculus, BaF3, CTG, parental BaF3 cell line, read-out: EC50 BaF3
[15] = Mus musculus, BaF3, parental cells, single replicates, read-out: CTG BaF3, individual determinations
[16] = Mus musculus, read-out: CTG BaF3myr-Akt3, Mean, mean of replicates
[17] = read-out: CTG BaF3myr-Akt3, individual determinations, single replicates
[18] = HTRF IC50 Akt1, individual determinations, single replicates
[19] = IC50 Akt1, HTRF, ATP at KM, 1 h preincubation
[20] = HTRF IC50 Akt2, Mean, mean of replicates
[21] = HTRF IC50 Akt2, individual determinations, single replicates
[22] = IC50 Akt2, HTRF, ATP at KM, 1 h preincubation
[23] = HTRF IC50 Akt3, Mean, mean of replicates
[24] = HTRF IC50 Akt3, individual determinations, single replicates
[25] = IC50 Akt3, HTRF, ATP at KM, 1 h preincubation
[26] = Ki Akt2, Mean, mean of replicates
[27] = Ki Akt2, individual determinations, single replicates
[28] = read-out: kinact /Ki Akt2, Mean, mean of replicates
[29] = read-out: kinact /Ki Akt2, individual determinations, single replicates
[30] = read-out: kinact Akt2, individual determinations, single replicates

Sequence of Akt3 (Q9Y243 whole entry): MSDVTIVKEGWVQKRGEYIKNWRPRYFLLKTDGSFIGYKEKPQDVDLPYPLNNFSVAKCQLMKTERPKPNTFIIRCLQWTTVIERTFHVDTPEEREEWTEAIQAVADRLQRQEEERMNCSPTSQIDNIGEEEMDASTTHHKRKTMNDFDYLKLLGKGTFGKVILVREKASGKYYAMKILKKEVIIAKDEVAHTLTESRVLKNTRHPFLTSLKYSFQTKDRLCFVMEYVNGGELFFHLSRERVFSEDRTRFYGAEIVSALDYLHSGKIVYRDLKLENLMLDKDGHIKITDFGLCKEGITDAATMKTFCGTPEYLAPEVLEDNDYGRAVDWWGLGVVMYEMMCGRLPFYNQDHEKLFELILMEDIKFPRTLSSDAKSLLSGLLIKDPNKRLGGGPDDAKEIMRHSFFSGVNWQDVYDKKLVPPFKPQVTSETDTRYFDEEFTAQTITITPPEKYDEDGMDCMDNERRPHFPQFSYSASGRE
T2 sequence (P31751 whole entry): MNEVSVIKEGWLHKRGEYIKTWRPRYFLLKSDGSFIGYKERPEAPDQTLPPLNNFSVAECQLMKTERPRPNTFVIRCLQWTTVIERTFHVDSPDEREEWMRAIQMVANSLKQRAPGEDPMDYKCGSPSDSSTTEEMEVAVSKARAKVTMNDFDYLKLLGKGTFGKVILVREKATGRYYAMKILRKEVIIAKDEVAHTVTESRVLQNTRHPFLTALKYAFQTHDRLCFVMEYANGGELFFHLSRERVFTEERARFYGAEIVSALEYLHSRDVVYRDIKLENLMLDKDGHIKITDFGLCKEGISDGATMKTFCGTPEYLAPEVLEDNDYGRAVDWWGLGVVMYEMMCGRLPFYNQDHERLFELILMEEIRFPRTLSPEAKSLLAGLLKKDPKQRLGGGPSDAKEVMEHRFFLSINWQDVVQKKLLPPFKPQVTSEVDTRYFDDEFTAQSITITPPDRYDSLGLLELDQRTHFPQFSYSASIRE
T1 sequence (P31749 whole entry): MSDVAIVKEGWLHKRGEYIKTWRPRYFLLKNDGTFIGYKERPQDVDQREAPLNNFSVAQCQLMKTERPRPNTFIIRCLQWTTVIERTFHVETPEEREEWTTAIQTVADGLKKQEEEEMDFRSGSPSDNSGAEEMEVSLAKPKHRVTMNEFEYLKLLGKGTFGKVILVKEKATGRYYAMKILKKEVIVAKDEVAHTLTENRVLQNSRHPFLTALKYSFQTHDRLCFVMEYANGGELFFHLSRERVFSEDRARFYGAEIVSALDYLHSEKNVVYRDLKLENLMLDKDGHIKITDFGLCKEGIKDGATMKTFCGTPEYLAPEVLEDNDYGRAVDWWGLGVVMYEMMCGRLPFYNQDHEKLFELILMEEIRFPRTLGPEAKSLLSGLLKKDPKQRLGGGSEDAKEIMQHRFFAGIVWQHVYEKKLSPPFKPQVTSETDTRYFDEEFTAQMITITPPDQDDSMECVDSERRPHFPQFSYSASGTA

EC50 (Ba/F3^myr-Akt1 cells; [8]): 1.07 µM | EC50 (Ba/F3^myr-Akt1 cells; [9]): 1.29 µM | EC50 (Ba/F3^myr-Akt1 cells; [10]): 0.706 µM and 1.2 µM and 1.1 µM | EC50 (Ba/F3^myr-Akt2 cells; [11]): 938 nM | EC50 (Ba/F3^myr-Akt2 cells; [12]): 1140 nM | EC50 (Ba/F3^myr-Akt2 cells; [13]): 1070 nM and 600 nM
SMILES: NC1(C(=O)N[C@@H](CCO)c2ccc(Cl)cc2)CCN(c2ncnc3[nH]ccc23)CC1 [Capivasertib, reference compound]
EC50 (parental Ba/F3 cells; [6]): 16 µM | EC50 (parental Ba/F3 cells; [7]): 11 µM and 13.9 µM and 23 µM | pAkt and downstream targets (immunoblot) [1]: less effective

EC50 (Ba/F3^myr-Akt1 cells; [8]): 17.8 µM | EC50 (Ba/F3^myr-Akt1 cells; [10]): 14.1 µM and 13.1 µM and 26.3 µM | EC50 (Ba/F3^myr-Akt2 cells; [11]): 1480 nM | EC50 (Ba/F3^myr-Akt2 cells; [13]): 1640 nM and 2110 nM and 691 nM | EC50 (Ba/F3^myr-Akt3 cells; [16]): 18.2 µM | EC50 (Ba/F3^myr-Akt3 cells; [17]): 10.3 µM and 26 µM and 21.5 µM | IC50 (Akt1 [2]; HTRF IC50 Akt1, Mean, mean of replicates): 90.6 nM | IC50 (Akt1 [2]; [18]): 106 nM and 73.7 nM and 92.3 nM | IC50 (Akt1 [2]; [19]): 91 ± 13 nM | Log ratio IC50 [Akt] / IC50 [Akt], Akt1 / Akt2 (Akt1 [2]): 0.37 | IC50 (Akt2 [3]; [20]): 38.4 nM | IC50 (Akt2 [3]; [21]): 36.7 nM and 47.9 nM and 40 nM | IC50 (Akt2 [3]; [22]): 39 ± 6 nM | IC50 (Akt3; [23]): 5.27 µM | IC50 (Akt3; [24]): 3.82 µM and 6.13 µM and 5.85 µM | IC50 (Akt3; [25]): 5.27 ± 1.03 µM | Ki (Akt1 [4]; Ki Akt1): 6 ± 1 nM | Ki (Akt1 [4]; Ki Akt1, Mean, mean of replicates): 6.62 nM | Ki (Akt1 [4]; Ki Akt1, individual determinations, single replicates): 4.2 nM and 7.8 nM and 7.9 nM | kinact/KI (Akt1 [4]; read-out: kinact /Ki Akt1): 32000 ± 5000 M⁻¹ s⁻¹ | kinact/KI (Akt1 [4]; read-out: kinact /Ki Akt1, Mean, mean of replicates): 44000 M⁻¹ s⁻¹ | kinact (Akt1 [4]; read-out: kinact Akt1): 0.000167 s⁻¹ | kinact (Akt1 [4]; read-out: kinact Akt1, Mean, mean of replicates): 0.000267 s⁻¹ | kinact (Akt1 [4]; read-out: kinact Akt1, individual determinations, single replicates): 0.000267 s⁻¹ | kinact Akt1, individual determinations (Akt1 [4]; single replicates): 0.014 min⁻¹ and 0.018 min⁻¹ | Ki (Akt2 [5]; Ki Akt2): 11 ± 2 nM | Ki (Akt2 [5]; [26]): 11.3 nM | Ki (Akt2 [5]; [27]): 10.1 nM and 10.2 nM and 13.6 nM | kinact/KI (Akt2 [5]; read-out: kinact /Ki Akt2): 15000 ± 1000 M⁻¹ s⁻¹ | kinact/KI (Akt2 [5]; [28]): 15000 M⁻¹ s⁻¹ | kinact/KI (Akt2 [5]; [29]): 15000 M⁻¹ s⁻¹ | kinact (Akt2 [5]; read-out: kinact Akt2): 0.000167 s⁻¹ | kinact (Akt2 [5]; [30]): 0.00015 s⁻¹ | kinact Akt2, individual determinations (Akt2 [5]; single replicates): 0.009 min⁻¹ and 0.013 min⁻¹
SMILES: C=CC(=O)Nc1ccc2[nH]c(=O)n(C3CCN(Cc4ccc(-c5ncc(C(=O)Nc6cccc(N)c6)cc5-c5ccccc5)cc4)CC3)c2c1 [compound 18]
EC50 (parental Ba/F3 cells; [14]): > 30 µM | EC50 (parental Ba/F3 cells; [6]): > 30 µM | EC50 (parental Ba/F3 cells; [15]): > 30 µM | EC50 (parental Ba/F3 cells; [7]): > 30 µM | Log ratio EC50 [Akt] / EC50 [Akt], Akt1 / Akt2 (Ba/F3^myr-Akt1 cells): 1.08 | Log ratio EC50 [Akt] / EC50 [Akt], Akt3 / Akt2 (Ba/F3^myr-Akt3 cells): -1.09

SMILES: C=CC(=O)Nc1ccc2[nH]c(=O)n(C3CCN(Cc4ccc(-c5ncc(Cn6ccnc6)cc5-c5ccccc5)cc4)CC3)c2c1 [compound 11]
EC50 (parental Ba/F3 cells; [14]): > 30 µM | EC50 (parental Ba/F3 cells; [6]): > 30 µM | EC50 (parental Ba/F3 cells; [15]): > 30 µM | EC50 (parental Ba/F3 cells; [7]): > 30 µM | EC50 (Ba/F3^myr-Akt1 cells; [9]): 28.2 µM | Log ratio EC50 [Akt] / EC50 [Akt], Akt1 / Akt2 (Ba/F3^myr-Akt1 cells): 1.03 | EC50 (Ba/F3^myr-Akt1 cells; [10]): 27.1 µM and > 30 µM (2×) | EC50 (Ba/F3^myr-Akt2 cells; [11]): 2690 nM | EC50 (Ba/F3^myr-Akt2 cells; [12]): 3180 nM | EC50 (Ba/F3^myr-Akt2 cells; [13]): 2510 nM and 2370 nM | EC50 (Ba/F3^myr-Akt3 cells; [16]): 18.6 µM | EC50 (Ba/F3^myr-Akt3 cells; Mus musculus, read-out: CTG BaF3myr-Akt3, individual determinations, single replicates): 18.3 µM | Log ratio EC50 [Akt] / EC50 [Akt], Akt3 / Akt2 (Ba/F3^myr-Akt3 cells): -0.84 | EC50 (Ba/F3^myr-Akt3 cells; [17]): 13.7 µM and 17.7 µM and 24.6 µM | IC50 (Akt1 [2]; [18]): 778 nM and 571 nM and 580 nM | IC50 (Akt1 [2]; [19]): 643 ± 95 nM | Log ratio IC50 [Akt] / IC50 [Akt], Akt1 / Akt2 (Akt1 [2]): 0.93 | IC50 (Akt2 [3]; [20]): 76.1 nM | IC50 (Akt2 [3]; [21]): 78.2 nM and 61.8 nM and 88.3 nM | IC50 (Akt2 [3]; [22]): 76 ± 11 nM | IC50 (Akt3; [23]): 1.89 µM | IC50 (Akt3; [24]): 1.36 µM and 1.74 µM and 2.57 µM | IC50 (Akt3; [25]): 1.89 ± 0.621 µM | Ki (Akt1 [4]; Ki Akt1): 9 ± 2 nM | kinact/KI (Akt1 [4]; read-out: kinact /Ki Akt1): 26000 ± 2000 M⁻¹ s⁻¹ | kinact (Akt1 [4]; read-out: kinact Akt1): 0.0002 s⁻¹ | Ki (Akt2 [5]; Ki Akt2): 11 ± 1 nM | Ki (Akt2 [5]; [26]): 10.2 nM | Ki (Akt2 [5]; [27]): 8.9 nM and 11.3 nM and 10.3 nM | kinact/KI (Akt2 [5]; read-out: kinact /Ki Akt2): 20000 ± 4000 M⁻¹ s⁻¹ | kinact/KI (Akt2 [5]; [28]): 20000 M⁻¹ s⁻¹ | kinact/KI (Akt2 [5]; [29]): 25000 M⁻¹ s⁻¹ | kinact (Akt2 [5]; read-out: kinact Akt2): 0.0002 s⁻¹ | kinact (Akt2 [5]; [30]): 0.000217 s⁻¹ | kinact Akt2, individual determinations (Akt2 [5]; single replicates): 0.013 min⁻¹ and 0.009 min⁻¹
